The values below come from PMC13266999, “Designing Antibiotics with Inherent Resistance to Efflux as a Strategy to Revive Discovery against Multidrug-Resistant Pathogens” (Journal of Medicinal Chemistry, 2026).

One data set relates to S. agalactiae. Briefly: MIC (microbroth dilution). As to conditions: for MIC: Streptococcus agalactiae. It counts as cell-based, Streptococcus agalactiae. Here is the method: All bacteria were maintained on tryptic soy agar (TSA), except Streptococcus spp., which were maintained on Columbia agar plates containing 5% horse blood. All bacterial assays were carried out in tryptic soy broth (TSB), except for Streptococcus spp. which were grown in cation-adjusted Mueller Hinton broth containing 2.5% lysed horse blood. Bacteria were grown to stationary phase in liquid culture overnight, with shaking at 200 rpm, before being back diluted to the relevant starting concentration for each assay below. MICs were measured by the microbroth dilution method. […] Absorbance at OD600 was read on a CLARIOstar spectrophotometer (BMG Labtech) and the MIC was defined as the minimum concentration of compound where no visible growth was detected. The compounds were prepared as a DMSO stock and equivalent concentrations of DMSO had no effect on bacterial growth. MICs were also performed in the presence of the outer membrane permeator, polymyxin b nonapeptide (PMBN) following the same MIC method but with the following variation. The 2-fold dilution series of compound was prepared as above, then 50 μL of PMBN at a final concentration of 30 μg/mL was added to relevant wells, while 50 μL/well of blank media was added to the remaining wells. Bacteria were then added at 50 μL/well for a starting concentration as above. Thirty μg/mL of PMBN had no effect on bacterial growth. The MICs were read and defined as above. All animal procedures were performed by the contract research organization Pharmacology Discovery Services Taiwan in accordance with the Guide for the Care and Use of Laboratory Animals. The procedures were approved by the Institutional Ethics Committee of Pharmacology Discovery Services Taiwan, Ltd. (approval no. AB127662), in compliance with animal welfare legislation in Taiwan.

The subject of a further data set is K. pneumoniae. Briefly: Mutation frequency and agar MIC. Format: cell-based. As to conditions: M6. The protocol: (§1) Mutation frequencies were performed on solid media at supra-inhibitory concentrations. First, the agar MIC was performed to account for any issues in solubility of compounds in solid media. Agar plates were prepared with 2-fold dilutions of compound.
(§2) For the mutation frequency assay, bacteria from an overnight culture were grown to mid exponential phase in liquid broth, then 100 μL was spread onto an agar plate containing compound at concentrations above the agar MIC. A Miles-Misra was also conducted on an antibiotic-free agar plate to determine the CFU/mL of the starting population. […] The mutation frequency was calculated by dividing the number of colonies on supra inhibitory con-centration plates by the starting population.

Data set [1] can be described thus: Plasma protein binding (RED). It counts as in vitro ADME. The settings on record: pH 7.4. Here is the method: Plasma protein binding was measured using a Rapid Equilibrium Dialysis (RED) assay. Test compounds and control compounds were added to plasma at 10 μM and dialyzed against phosphate-buffered saline (PBS, pH 7.4) for 4 h at 37 °C. […] The percentage of drug bound to plasma proteins was calculated by comparing the analyte response in the plasma compartment with that in the buffer compartment.

For the next data set, the system named is WI38. Briefly: Toxicity in nontumor eukaryotic cell line. It counts as cell-based. As to conditions: 100 μM, the highest concentration tested.
The target of a further data set is T1, COX1(h) (Homo sapiens, UniProt P23219).
T1 construct: purchased Eurofins (SafetyScreen44)
Briefly: SafetyScreen44. The settings on record: enzymatic activity, 1.0E-05 M. It counts as biochemical. The protocol: (§3) Off-target pharmacology was evaluated using the Eurofins SafetyScreen44 in vitro panel. […] Binding assays were performed using radioligand displacement, and enzyme or uptake assays measured inhibition of control activity using validated detection methods (scintillation counting, fluorimetry or photometry). Responses were expressed as percent inhibition of control binding or activity. Based on Eurofins interpretation guidelines, effects ≥50% were considered significant, effects between 25% and 50% weak to moderate, and effects <25% were not considered biologically relevant.

The next data set addresses T2, COX2(h) (Homo sapiens, UniProt P35354).
T2 construct: purchased Eurofins (SafetyScreen44)
Briefly: SafetyScreen44. As to conditions: enzymatic activity, 1.0E-05 M. It counts as biochemical. The protocol:
as §3

For another data set, the target named is T3, Lck kinase (h) (Homo sapiens, UniProt P06239).
T3 construct: purchased Eurofins (SafetyScreen44)
Briefly: SafetyScreen44. Format: biochemical. The settings on record: enzymatic activity, 1.0E-05 M. Here is the method: as §3

The target in a further data set is T4, PDE3A (h) (Homo sapiens, UniProt Q14432).
T4 construct: purchased Eurofins (SafetyScreen44)
Briefly: SafetyScreen44. It counts as biochemical. The settings on record: enzymatic activity, 1.0E-05 M. Here is the method: as §3

Another data set addresses T5, PDE4D2 (h) (Homo sapiens, UniProt Q08499).
T5 construct: purchased Eurofins (SafetyScreen44)
Briefly: SafetyScreen44. It counts as biochemical. As to conditions: enzymatic activity, 1.0E-05 M. The protocol:
as §3

Another data set concerns the target T6, acetylcholinesterase (h) (Homo sapiens, UniProt P22303).
T6 construct: purchased Eurofins (SafetyScreen44)
Briefly: SafetyScreen44. It counts as biochemical. The settings on record: enzymatic activity, 1.0E-05 M. The protocol:
as §3

A further data set concerns the target CYP1A (Homo sapiens, UniProt P05177). Briefly: CYP inhibition. As to conditions: human liver microsomes, probe phenacetin, HLM, phenacetin substrate. (Liver microsomes are a subcellular fraction often used to study metabolism.)
For a further data set, the target named is CYP2B6 (Homo sapiens, UniProt P20813). Briefly: CYP inhibition. As to conditions: HLM, bupropion substrate.
The target in the next data set is CYP2C19 (Homo sapiens, UniProt P33261). Briefly: CYP inhibition. The settings on record: HLM, omeprazole substrate; for CYP2C19 inhibition: 10 μM.
Data set [2] relates to NorA overexpressing strain NCTC 13616. Briefly: Reserpine growth (efflux inhibition) assay. The settings on record: for AUC of growth curve: biological replicates 1-3; for efflux liability in reserpine assay: 0.5x MIC with vs without reserpine.
Procedure: Statistical analyses were performed with GraphPad Prism V9.5.0. […] Unpaired t tests were used when comparing two samples in the gyrase assays.
A further data set has as its system E. faecium. Briefly: Mutation frequency and agar MIC. It counts as cell-based. The settings on record: NCTC 12204. The protocol: as §1, §2

In brackets after ≈: the same amount, converted by molar mass. Several values for one entry are separate records, joined by “and”; a condition that tells them apart may be missing. Equal values may be shown once. Read-outs that look alike come from different tables or passages of the source.

CYP2C19, sequence (P33261 whole entry): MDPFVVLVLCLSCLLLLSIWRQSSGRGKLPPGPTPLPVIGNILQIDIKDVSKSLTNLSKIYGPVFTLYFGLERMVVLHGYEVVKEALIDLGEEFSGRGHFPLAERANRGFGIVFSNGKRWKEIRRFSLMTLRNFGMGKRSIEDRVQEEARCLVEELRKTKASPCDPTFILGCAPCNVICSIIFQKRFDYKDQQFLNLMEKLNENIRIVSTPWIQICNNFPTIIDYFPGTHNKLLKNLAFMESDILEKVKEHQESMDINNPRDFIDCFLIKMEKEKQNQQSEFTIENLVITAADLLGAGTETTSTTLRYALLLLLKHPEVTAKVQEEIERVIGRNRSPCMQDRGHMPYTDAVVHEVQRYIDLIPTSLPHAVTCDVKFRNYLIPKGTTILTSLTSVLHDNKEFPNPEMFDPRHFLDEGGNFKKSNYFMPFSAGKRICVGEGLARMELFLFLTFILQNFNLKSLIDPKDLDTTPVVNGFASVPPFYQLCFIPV
T6 sequence (P22303 32-614): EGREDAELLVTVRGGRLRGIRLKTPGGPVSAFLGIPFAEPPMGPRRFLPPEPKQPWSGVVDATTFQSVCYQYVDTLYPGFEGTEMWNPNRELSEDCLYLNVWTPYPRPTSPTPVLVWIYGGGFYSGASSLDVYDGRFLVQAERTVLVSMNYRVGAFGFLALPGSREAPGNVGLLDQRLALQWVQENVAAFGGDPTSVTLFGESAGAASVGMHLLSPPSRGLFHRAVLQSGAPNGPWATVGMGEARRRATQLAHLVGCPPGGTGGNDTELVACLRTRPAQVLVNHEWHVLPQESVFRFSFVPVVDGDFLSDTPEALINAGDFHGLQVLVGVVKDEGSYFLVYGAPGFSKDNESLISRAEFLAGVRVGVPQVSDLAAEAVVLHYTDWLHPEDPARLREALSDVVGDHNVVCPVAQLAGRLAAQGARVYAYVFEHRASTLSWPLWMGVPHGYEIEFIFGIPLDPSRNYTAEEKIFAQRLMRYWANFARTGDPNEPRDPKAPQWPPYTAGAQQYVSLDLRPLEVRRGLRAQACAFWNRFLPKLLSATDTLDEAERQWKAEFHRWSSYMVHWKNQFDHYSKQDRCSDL
CYP2B6, sequence (P20813 whole entry): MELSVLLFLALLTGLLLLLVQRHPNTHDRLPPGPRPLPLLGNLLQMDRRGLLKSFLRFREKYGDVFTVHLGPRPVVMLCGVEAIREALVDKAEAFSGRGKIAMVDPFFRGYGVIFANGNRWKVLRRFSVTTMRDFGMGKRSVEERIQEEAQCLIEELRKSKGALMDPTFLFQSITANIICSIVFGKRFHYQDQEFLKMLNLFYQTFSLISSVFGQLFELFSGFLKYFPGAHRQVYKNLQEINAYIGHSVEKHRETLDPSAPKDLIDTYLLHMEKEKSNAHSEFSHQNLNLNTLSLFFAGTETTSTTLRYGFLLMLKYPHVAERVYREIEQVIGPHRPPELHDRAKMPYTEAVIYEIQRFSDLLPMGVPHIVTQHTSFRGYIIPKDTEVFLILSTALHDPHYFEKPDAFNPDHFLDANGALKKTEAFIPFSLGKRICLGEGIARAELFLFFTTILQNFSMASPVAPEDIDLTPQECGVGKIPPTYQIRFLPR
T1 sequence (P23219 24-599): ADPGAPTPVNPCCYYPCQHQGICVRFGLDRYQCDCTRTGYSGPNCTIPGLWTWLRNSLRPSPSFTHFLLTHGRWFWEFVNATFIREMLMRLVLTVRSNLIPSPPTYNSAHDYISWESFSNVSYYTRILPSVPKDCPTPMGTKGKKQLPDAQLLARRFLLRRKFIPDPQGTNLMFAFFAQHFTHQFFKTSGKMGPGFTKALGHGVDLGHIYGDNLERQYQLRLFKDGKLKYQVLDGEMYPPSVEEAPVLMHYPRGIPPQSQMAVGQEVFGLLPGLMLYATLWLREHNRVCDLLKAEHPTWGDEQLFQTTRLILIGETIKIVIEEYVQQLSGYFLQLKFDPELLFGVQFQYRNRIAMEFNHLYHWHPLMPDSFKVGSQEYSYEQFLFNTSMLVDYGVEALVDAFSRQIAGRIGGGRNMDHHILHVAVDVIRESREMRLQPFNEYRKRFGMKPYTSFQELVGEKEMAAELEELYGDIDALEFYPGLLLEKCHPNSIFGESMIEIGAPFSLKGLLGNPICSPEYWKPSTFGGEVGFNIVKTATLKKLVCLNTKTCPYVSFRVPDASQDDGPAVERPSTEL
T3 sequence (P06239 whole entry): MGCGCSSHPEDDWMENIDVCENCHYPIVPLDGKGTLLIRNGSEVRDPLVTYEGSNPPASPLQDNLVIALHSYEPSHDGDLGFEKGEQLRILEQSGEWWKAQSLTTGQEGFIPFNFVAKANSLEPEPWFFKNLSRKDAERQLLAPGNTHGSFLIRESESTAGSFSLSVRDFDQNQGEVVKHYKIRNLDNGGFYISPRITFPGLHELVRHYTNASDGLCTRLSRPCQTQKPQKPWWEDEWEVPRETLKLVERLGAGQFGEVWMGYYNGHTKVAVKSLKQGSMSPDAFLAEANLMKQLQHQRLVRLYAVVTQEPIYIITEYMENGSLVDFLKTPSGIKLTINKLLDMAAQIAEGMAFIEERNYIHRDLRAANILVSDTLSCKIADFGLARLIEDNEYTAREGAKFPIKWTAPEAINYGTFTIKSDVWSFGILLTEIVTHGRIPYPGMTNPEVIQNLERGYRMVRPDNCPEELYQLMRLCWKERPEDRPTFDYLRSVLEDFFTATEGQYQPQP
CYP1A, sequence (P05177 whole entry): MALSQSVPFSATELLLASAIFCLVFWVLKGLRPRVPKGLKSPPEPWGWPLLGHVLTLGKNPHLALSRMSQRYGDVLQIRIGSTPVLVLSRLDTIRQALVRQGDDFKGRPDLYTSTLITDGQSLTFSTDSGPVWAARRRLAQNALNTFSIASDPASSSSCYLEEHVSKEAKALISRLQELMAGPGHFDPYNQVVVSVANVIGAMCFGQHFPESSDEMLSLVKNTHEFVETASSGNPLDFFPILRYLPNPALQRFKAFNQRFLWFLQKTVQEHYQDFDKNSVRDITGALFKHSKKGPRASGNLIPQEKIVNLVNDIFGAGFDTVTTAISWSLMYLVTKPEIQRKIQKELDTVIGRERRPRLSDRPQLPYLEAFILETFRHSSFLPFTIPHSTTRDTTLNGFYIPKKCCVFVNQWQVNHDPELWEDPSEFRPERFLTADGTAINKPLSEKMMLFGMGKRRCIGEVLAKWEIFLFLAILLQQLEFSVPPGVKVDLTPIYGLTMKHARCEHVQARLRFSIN
T4 sequence (Q14432 whole entry): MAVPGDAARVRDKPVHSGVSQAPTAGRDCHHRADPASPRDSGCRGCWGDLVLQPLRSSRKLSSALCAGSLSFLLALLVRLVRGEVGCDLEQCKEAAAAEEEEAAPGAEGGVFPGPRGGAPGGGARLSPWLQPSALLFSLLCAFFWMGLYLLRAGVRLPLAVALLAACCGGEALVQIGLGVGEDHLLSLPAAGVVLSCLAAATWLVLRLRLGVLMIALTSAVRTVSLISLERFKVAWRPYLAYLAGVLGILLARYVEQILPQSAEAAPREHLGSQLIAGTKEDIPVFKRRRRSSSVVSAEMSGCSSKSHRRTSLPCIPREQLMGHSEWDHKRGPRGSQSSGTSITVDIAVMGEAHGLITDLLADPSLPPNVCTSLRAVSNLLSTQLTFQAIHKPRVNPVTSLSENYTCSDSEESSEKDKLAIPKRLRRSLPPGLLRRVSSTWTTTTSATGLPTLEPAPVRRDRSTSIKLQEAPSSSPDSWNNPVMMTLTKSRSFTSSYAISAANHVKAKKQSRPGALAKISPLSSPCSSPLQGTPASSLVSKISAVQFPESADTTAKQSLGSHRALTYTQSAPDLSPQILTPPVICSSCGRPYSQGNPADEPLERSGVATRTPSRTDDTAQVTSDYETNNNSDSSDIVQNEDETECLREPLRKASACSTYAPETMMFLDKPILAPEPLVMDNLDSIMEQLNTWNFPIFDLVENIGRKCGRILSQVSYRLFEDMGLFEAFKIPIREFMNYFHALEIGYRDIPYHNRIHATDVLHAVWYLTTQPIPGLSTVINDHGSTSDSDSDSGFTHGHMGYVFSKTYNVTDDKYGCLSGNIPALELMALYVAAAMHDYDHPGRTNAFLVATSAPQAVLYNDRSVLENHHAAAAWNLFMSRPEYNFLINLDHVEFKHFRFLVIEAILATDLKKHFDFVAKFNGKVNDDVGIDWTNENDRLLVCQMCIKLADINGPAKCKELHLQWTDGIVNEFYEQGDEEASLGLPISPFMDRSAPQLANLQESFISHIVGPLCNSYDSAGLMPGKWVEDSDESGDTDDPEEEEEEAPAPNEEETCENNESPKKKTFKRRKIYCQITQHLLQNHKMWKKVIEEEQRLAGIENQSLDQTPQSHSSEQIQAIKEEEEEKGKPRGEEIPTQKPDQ
T2 sequence (P35354 18-604): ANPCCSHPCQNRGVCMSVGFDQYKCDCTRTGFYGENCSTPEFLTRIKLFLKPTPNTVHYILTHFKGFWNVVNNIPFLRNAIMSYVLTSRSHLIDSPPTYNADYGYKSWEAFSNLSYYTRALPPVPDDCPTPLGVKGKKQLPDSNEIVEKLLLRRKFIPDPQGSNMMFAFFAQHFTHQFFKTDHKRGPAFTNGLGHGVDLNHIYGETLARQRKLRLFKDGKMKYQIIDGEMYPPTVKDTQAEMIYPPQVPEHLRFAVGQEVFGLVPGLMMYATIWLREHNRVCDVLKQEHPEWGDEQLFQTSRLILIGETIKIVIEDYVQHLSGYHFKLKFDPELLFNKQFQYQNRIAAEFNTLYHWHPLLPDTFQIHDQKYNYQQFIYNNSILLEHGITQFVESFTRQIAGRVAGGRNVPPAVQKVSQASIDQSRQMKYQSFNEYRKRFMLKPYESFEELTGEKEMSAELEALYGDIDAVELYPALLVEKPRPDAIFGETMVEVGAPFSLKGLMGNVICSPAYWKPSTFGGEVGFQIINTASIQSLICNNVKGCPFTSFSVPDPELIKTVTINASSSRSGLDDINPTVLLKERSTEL
Procedure for CYP1A: (§4) Cytochrome P450 inhibition was assessed in vitro using human recombinant enzymes in microsomal preparations. […] Enzyme activity was quantified by monitoring formation of substrate-specific metabolites, and percent inhibition was calculated relative to vehicle control.
Procedure for CYP2B6: as §4
Procedure for CYP2C19: as §4

Take `C[C@H]1COc2c(N3CC[C@@H](Nc4ncccn4)C3)c(F)cc3c(=O)c(C(=O)O)cn1c23` [Compound 46, (S)-9-Fluoro-3-methyl-7-oxo-10-((R)-3-(pyrimidin-2-ylamino)pyrrolidin-1-yl)-2,3-dihydro-7H-[1,4]oxazino[2,3,4-ij]quinoline-6-carboxylic acid]: the MIC is 0.125 µg/mL (≈ 0.294 µM) in the data set on S. agalactiae (6175); 0.5 µg/mL (≈ 1.18 µM) in the data set on S. agalactiae (8017, read-out: MIC); 0.125 µg/mL (≈ 0.294 µM) against S. agalactiae (8181); 0.125 µg/mL (≈ 0.294 µM) with S. agalactiae (8183); at most 0.03 µg/mL in the data set on S. agalactiae (10069, read-out: MIC); 0.125 µg/mL (≈ 0.294 µM) in the data set with S. agalactiae (10182). The MIC in the data set on S. agalactiae (11080, read-out: MIC) is 0.25 µg/mL (≈ 0.588 µM); with S. agalactiae (83190), 0.125 µg/mL (≈ 0.294 µM); in the data set with S. agalactiae (83740) it was 0.125 µg/mL (≈ 0.294 µM); in the data set with S. agalactiae (84115), 0.125 to 0.5 µg/mL (≈ 0.294 to 1.18 µM). In the data set with S. agalactiae (n = 10), this compound registered an MIC range of 0.06 to 0.5 µg/mL. The same compound displayed an Agar MIC in the data set on K. pneumoniae of 0.5 µg/mL. The fraction unbound at 4 h, 10 μM in data set [1] is 0.42. Moreover, in the data set on WI38, the “toxicity in WI38” value is on record as “nontoxic”. The “% Inhibition” value was 30.3185% and 30.3% on COX1(h); 8.111% at COX2(h); -2.891% on Lck kinase (h); 7.502% at PDE3A (h); 32.9861% and 33.0% on acetylcholinesterase (h). In addition, the inhibition at 10 µM was 14.8% at PDE4D2 (h); 9.6% against CYP1A; -1.3% against CYP2B6 (human, human liver microsomes, probe bupropion, CYP2B6 inhibition). The CYP2C19 inhibition at CYP2C19 worked out at 0.6%. For the same compound, the “AUC of growth curve” value in [2] (0.25 MIC + R (reserpine)) was 3.991 and 3.857 and 2.348; in data set [2] (0.25 MIC), 5.243 and 5.279 and 3.696; in [2] (0.5 MIC + R (reserpine)) it was 3.930 and 3.864 and 2.013; in [2] (0.5 MIC), 4.798 and 3.349 and 3.713. Moreover, in data set [2], the “efflux liability in reserpine assay” value is recorded as “minimal shift”.
Consider `Cc1cc(C)nc(N[C@@H]2CCN(c3c(F)cc4c(=O)c(C(=O)O)cn5c4c3OC[C@@H]5C)C2)n1` [Compound 50, (S)-10-((R)-3-((4,6-Dimethylpyrimidin-2-yl)amino)pyrrolidin-1-yl)-9-fluoro-3-methyl-7-oxo-2,3-dihydro-7H-[1,4]oxazino[2,3,4-ij]quinoline-6-carboxylic acid], for which the MIC with S. agalactiae (6175, read-out: MIC) was 0.06 µg/mL (≈ 0.132 µM); with S. agalactiae (8017, read-out: MIC), 0.25 µg/mL (≈ 0.551 µM); in the data set with S. agalactiae (8181, read-out: MIC), 0.06 µg/mL (≈ 0.132 µM); in the data set with S. agalactiae (8183), 0.125 µg/mL (≈ 0.276 µM); with S. agalactiae (10069, read-out: MIC), at most 0.03 µg/mL; in the data set with S. agalactiae (10182, read-out: MIC), 0.06 µg/mL (≈ 0.132 µM). The MIC against S. agalactiae (11080) came to 0.125 µg/mL (≈ 0.276 µM); in the data set with S. agalactiae (83190, read-out: MIC), 0.06 µg/mL (≈ 0.132 µM); in the data set on S. agalactiae (83740, read-out: MIC), 0.06 µg/mL (≈ 0.132 µM); with S. agalactiae (84115), 0.125 µg/mL (≈ 0.276 µM); against S. agalactiae (ATCC12386, ATCC 12386), 0.25 µg/mL (≈ 0.551 µM); in the data set on S. agalactiae (n = 10, read-out: modal MIC), 0.06 µg/mL (≈ 0.132 µM). The Agar MIC in the data set on E. faecium amounted to 2 µg/mL. Moreover, the fraction unbound at 4 h, 10 μM in data set [1] was 0.28. Besides, in the data set with WI38, the “toxicity in WI38” value was “nontoxic”. Further, the inhibition at 10 µM on COX1(h) is 15%; against COX2(h), 25.9%; against Lck kinase (h) it was 2.87%; against PDE3A (h) it was 12.2%; against PDE4D2 (h), 31.8%; on acetylcholinesterase (h) it was 34.2%. Further, the inhibition at 10 µM against CYP1A stood at 16%; at CYP2C19 (human, human liver microsomes, probe omeprazole, CYP2C19 inhibition), 9.87%. The CYP2B6 inhibition at CYP2B6 (10 μM) is 4.821% and < 10%. This compound also gave a CYP2C19 inhibition on CYP2C19 of under 10%. For the same compound, the “AUC of growth curve” value was 2.985 and 3.342 and 3.404 in data set [2] (0.25 MIC + R (reserpine)); 3.519 and 4.693 and 4.851 in data set [2] (0.25 MIC); 1.548 and 1.586 and 2.254 in [2] (0.5 MIC + R (reserpine)); 2.203 and 2.425 and 1.859 in [2] (0.5 MIC). The “efflux liability in reserpine assay” value in data set [2] is “minimal shift”.
In the case of `C[C@H]1COc2c(N3CCN(C)CC3)c(F)cc3c(=O)c(C(=O)O)cn1c23` [Levofloxacin, (S)-9-Fluoro-3-methyl-10-(4-methylpiperazin-1-yl)-7-oxo-2,3-dihydro-7H-[1,4]oxazino[2,3,4-ij]quinoline-6-carboxylic acid, reference compound], the Agar MIC is 1 µg/mL in the data set with E. faecium and 0.03 µg/mL with K. pneumoniae.

A word on the MIC: it is the lowest concentration found to suppress growth. The term fraction unbound denotes the share of the substance not bound to proteins or other matrix. Lower therefore signals little free substance. By % Inhibition is commonly meant the change of the read-out against control, counted positive when it falls. As usually defined, the inhibition is the relative decrease from the control value, in per cent.
